Test system: p62
Assay: Western immunoblotting of autophagy marker p62
Assay type: cell-based, human
Conditions: U87-MG, 12 h treatment +/- 12 h HCQ
Protocol: U87-MG cells were plated at 500,000 cells/well in 6-well plates and allowed to adhere overnight (Falcon). Medium was removed and replaced with fresh medium containing drugs or compounds for the indicated timepoints. Cells were collected after treatment by washing with PBS, harvested with trypsin plus agitation to detach cells, pelleted in a centrifuge and resuspended in PBS to wash. Cells were transferred to 1.5 mL microcentrifuge tubes, pelleted, and resuspended in RIPA lysis buffer (50 mM Tris pH 8.0, 150 mM NaCl, 1% nonidet P40, 0.5% sodium deoxycholate, and 0.05% SDS) containing 1 mM NaVO4, 1 mM NaF, 1 mM phenylmethylsulfonyl fluoride, 0.1 μg/mL antipain, 1 μM aprotinin, 100 μM benzamidine HCl, 0.1 μg/mL leupeptin, 0.1 μg/mL pepstatin, and 0.1 μg/mL soybean trypsin inhibitor. Protein was quantified using a BCA assay kit (Pierce). 50 μg of protein was prepared in 1× Laemmli sample buffer (50 mM Tris pH 6.8, 0.02% w/v bromophenol blue, 2% w/v SDS, 10% v/v glycerol, 1% v/v beta-mercaptoethanol, 12.5 mM EDTA) and separated by SDS-PAGE on a 4-15% polyacrylamide gradient gel (Bio-Rad). […]

In the case of `Cn1cnnc1S/C=C/C(=O)c1ccc(F)cc1` [Y102], the “p62 expression (western immunoblotting)” value is reported as “increased”.
